Experimental data published in patent US20030073672A1, “Method for treating allergies using substituted pyrazoles” (priority 2001, published 2003).

Key:
[1] = system: allergic volunteers; assay: Monitoring in vivo inhibition of allergenic response (cutaneous reactions); details: allergens deposited subcutaneously
[2] = system: human T cell proliferative responses to house dust mite extracts (Der p, Der f) in PBMC; assay: Ex vivo human T cell-proliferation assay, house dust mite extracts; format: cell-based; details: seven days; for human T cell proliferative responses to Der f: PBMC from an allergy donor, Der f extract, titrated doses of compound, FIG. 3
From the text: This proliferation consisted primarily of allergen-specific CD4 T cells.

[3] = system: T cell proliferative responses induced by ConA in PBMC; assay: Ex vivo human T cell-proliferation assay, ConA control; format: cell-based; details: PBMC of allergic donors, a pan-T cell mitogen
From the text: Reagents. […] Cell culture.

[4] = system: human T cell proliferative responses to ragweed extracts (short, giant) in PBMC; assay: Ex vivo human T cell-proliferation assay, ragweed extracts; details: PBMC of ragweed-allergic donors, short and giant ragweed extracts, FIG. 2B
[5] = system: invariant chain (Ii) degradation, p10Ii fragment, in PBMC from human blood; assay: Monitoring cathepsin S inhibition in human blood (p10Ii Western blot); format: cell-based; details: incubation for 24 h, SDS-PAGE / Western blot
Protocol: The effect of in vivo administration of cathepsin S inhibitors, in a clinical trial setting, can be monitored by measuring accumulation of an intermediate degradation product of invariant chain (Ii), i.e. the p10Ii fragment, in blood of dosed subjects. After administration of a cathepsin inhibitor for a certain period of time, for example, between 0.01 and 50 mg/kg/day, to result in a blood concentration of between 1 nM-10 μM, for 16-30 h, blood is drawn and white blood cells are purified, e.g. either by lysis of red blood cells or by a Ficoll-Hypaque gradient centrifugation. Whole cell lysates of WBC are then made and analyzed by either a Western blot assay or an ELISA assay. For the Western blot assay, cell lysates are first resolved on SDS-PAGE gels. After transferring to nitrocellulose membranes, Ii and its intermediate degradation products, including the p10Ii, can be detected using a mouse mAb against Ii, e.g. Pin.1, or rabbit polyclonal antibodies specific for the C-terminus of the p10Ii fragment or against the entire p10Ii fragment. For ELISA assay, a pair of antibodies against Ii, including Pin1.1, and a rabbit polyclonal antibody or a mouse monoclonal antibody specific for p10Ii, can be used. The same assay can also be applied to monitor the effect of cathepsin S inhibitors in vivo in animal studies, for example in monkeys, dogs, pigs, rabbits, guinea pigs, and rodents.

Row | SMILES | immediate weal and flare response ([1]; 15 min) | late phase response (induration) ([1]; 6 h and 24 h) | human T cell proliferative responses to Der f [2] | T cell proliferative responses induced by ConA [3] | T cell proliferation (3H-thymidine incorporation) induced by HDM extracts ([2]; PBMC of HDM-allergic donors, Der p or Der f extracts, FIG. 1B) | T cell proliferation (3H-thymidine incorporation) induced by ragweed extracts [4] | p10Ii fragment accumulation (block in the degradation of Ii) [5]
1 | C[C@]12C=CC(=O)C=C1CC[C@@H]1[C@@H]2C(=O)C[C@@]2(C)[C@H]1CC[C@]2(O)C(=O)CO [Prednisone, prednisone] | inhibit both the immediate and the late phase responses | inhibit both the immediate and the late phase responses |  |  |  |  | 
2 | N#Cc1ccccc1N1CCN(CC(Cn2nc(-c3ccc(I)cc3)c3c2CCN(C(N)=O)C3)OC(N)=O)CC1 (stereo not shown) [Example 11, Carbamic acid 1-[5-carbamoyl-3-(4-iodo-phenyl)-4,5,6,7-tetrahydro-pyrazolo[4,3-c]pyridin-1-ylmethyl]-2-[4-(2-cyano-phenyl)-piperazin-1-yl]-ethyl Ester] |  |  | inhibition | but not ConA |  |  | 
3 | CC(C)C[C@H](NC(=O)N1CCOCC1)C(=O)N[C@H](/C=C/S(=O)(=O)c1ccccc1)CCc1ccccc1 [LHVS, 4-morpholinecarboxamide, N-[(1S)-3-methyl-1-[[[(1S,2E)-1-(2-phenylethyl)-3-(phenylsulfonyl)-2-propenyl]amino]carbonyl]butyl]-] |  |  |  | not affected | strongly inhibited | strongly inhibited | the p10Ii fragment was seen
4 | CS(=O)(=O)N1CCc2c(c(-c3ccc(I)cc3)nn2CC(O)CN2CCN(c3ccccc3C#N)CC2)C1 (stereo not shown) [Example 36, 2-(4-{2-Hydroxy-3-[3-(4-iodo-phenyl)-5-methanesulfonyl-4,5,6,7-tetrahydro-pyrazolo[4,3-c]pyridin-1-yl]-propyl}-piperazin-1-yl)-benzonitrile] |  |  | inhibition | but not ConA |  |  | 
